Read-outs that look alike come from different tables or passages of the source.
Key:
[1] = design: method as in PMID 16194449; conditions: free dye; cited from earlier work
[2] = tested on: PC-3 cells; assay: Confocal fluorescence imaging, PSMA-negative cells; type: cell-based; conditions: PSMA-negative PC-3 cells, 50 nmol/L
Experimental: (§1) For confocal microscopy sample preparation, 10^5 cells/well were seeded in poly-L-lysine (Sigma-Aldrich, Darmstadt, Germany) coated 4-well chambered coverslips (Nunc Lab-Tek II chambered coverglasses, Thermo Fisher Scientific, Waltham, MA, USA, live cell imaging) or on poly-L-lysine (Sigma-Aldrich, Darmstadt, Germany) coated #1 coverslips (15 mm diameter, fixed cell imaging) and kept for 48 h at 37 °C in humidified air with 5% CO2. Subsequently, cells were incubated with 50 nmol/L PSMA-927in RPMI for 5/15/30/45/60 min at 37 °C in humidified air with 5% CO2. […]
(§2) All confocal data were acquired with a custom-built STED system similar to the one published by Gorlitz et al.. […] Laser powers were measured in front of the microscope body. […]
(§3) The integrated fluorescence intensity was extracted with a custom-written ImageJ routine. […] Multiplying this mask with the corresponding raw image generates an output image with which the integrated fluorescence intensity can be evaluated exclusively in the signal-carrying parts of the raw image without summing up background.

[3] = tested on: LNCaP cells; assay: Specific cell surface binding and internalization of 68Ga-labeled compounds; type: cell-based; conditions: 68Ga-labeled compounds; blockage with 500 µmol/L 2-PMPA; mean ± SD, n = 3
Experimental: (§4) LNCaP cells (CRL-1740; ATCC; PSMA-positive) and PC-3 cells (CRL-1435; ATCC; PSMA-negative) were cultured in RPMI medium (Thermo Fisher Scientific, Waltham, MA, USA) supplemented with 10% fetal calf serum and 2 mmol/L L-glutamine (all from (Thermo Fisher Scientific, Waltham, MA, USA) ) at 37 °C in humidified air with 5% CO2. Cells were harvested using trypsin-ethylenediaminetetraacetic acid (trypsin-EDTA; 0.25% trypsin, 0.02% EDTA, Invitrogen, Waltham, MA, USA). Cell line authentication was regularly performed. Binding affinities and internalization profiles of the ^68Ga-labeled compounds were determined in competitive cell binding assays and internalization experiments as described previously.

[4] = Spectral properties (absorption and emission); type: physicochemical; conditions: 10 μM in PBS (pH 7.4)
Experimental: Absorbance was measured with a Varian Cary 500 UV-VIS NIR Spectrophotometer (Agilent, Santa Clara, CA, USA) equipped with the software Cary 500 (EPROM Version 8.01, Agilent, Santa Clara, CA, USA) in the 200–1200 nm interval. Fluorescence emission was measured with a Varian Cary Eclipse Fluorescence-Spectrophotometer (Agilent, Santa Clara, CA, USA) equipped with the software Cary Eclipse (Version 1.1, Agilent, Santa Clara, CA, USA) with excitation at 710 nm in the 720–900 nm interval. PSMA-927 was diluted to 10 μM in PBS (pH 7.4) and measured in standard 1 cm quartz cuvettes.

[5] = biological target: T1, PSMA (Homo sapiens, UniProt Q04609); assay: Competitive cell binding assay (radioligand 68Ga-PSMA-10); conditions: free ligands, mean ± SD, n = 3
T1 construct: LNCaP cells (CRL-1740; ATCC; PSMA-positive); host or cells: LNCaP cells
Experimental: as §4

[6] = Lipophilicity, logD at pH 7.4 in n-octanol/PBS; type: physicochemical; conditions: 68Ga-labeled ligand
Experimental: The synthesis was performed according to previously published protocols. Details on synthesis and analytical data of the compounds are provided in the Supplementary Materials (Compound Synthesis and Analytical Characterization). […] Using 30% NaOH (Sigma-Aldrich, Darmstadt, Germany) and 10% NaOH (Sigma-Aldrich, Darmstadt, Germany), the pH was adjusted to 3.8. The reaction mixture was incubated at 98 °C for 5–10 min. The radiochemical yield was analyzed by reversed-phase high-performance liquid chromatography (RP-HPLC) or reversed-phase thin-layer chromatography (RP-TLC, 60 RP-18 F254S, Sigma-Aldrich, Darmstadt, Germany) with 0.5 M ammonium acetate/methanol (1:1) as the mobile phase. The lipophilicity of the ^68Ga-labeled compounds was determined using the 2-phase system n-octanol and PBS.

[7] = tested on: LNCaP cells; assay: Cytotoxicity study by holographic time-lapse imaging; type: cell-based; conditions: 100 nmol/L, constant exposure for 48 h
Experimental: Potential cytotoxicity of PSMA-927 was assessed by analyzing the frequency of LNCaP cell division and the length of the LNCaP cell cycle via holographic time-lapse imaging. Cells were seeded in lumox® 24-well plates (Sarstedt, Nümbrecht, Germany) 48 h prior to the experiment and kept at 37 °C and 5% CO2. Imaging was performed with a HoloMonitor® M4 cytometer (PHI AB, Lund, Schweden) for a total period of 48 h at 37 °C and 5% CO2 with 15 min between image captures. Cell proliferation was followed in absence and in presence of 100 nmol/L PSMA-927. Data analysis was performed with the AppSuite software including cell segmentation, tracking of cells, identification of dividing cells, confluency measurement, and cell counting.

[8] = tested on: LNCaP cells; assay: Confocal fluorescence imaging, PSMA-positive cells; type: cell-based; conditions: 50 nmol/L, 60 min of internalization
Experimental: as §1, §2, §3

[9] = tested on: LNCaP-tumor bearing BALB/c nu/nu mice; conditions: 1 h p.i.; cited from earlier work
[10] = design: method as in PMID 25883127; conditions: n-octanol/PBS; cited from earlier work
[11] = tested on: LNCaP cells; design: method as in PMID 26878194; conditions: cited from earlier work
[12] = design: method as in PMID 34161051; conditions: 831 patients; cited from earlier work
[13] = design: method as in PMID 29752180; conditions: twelve weeks after the first dose; cited from earlier work

T1 sequence (Q04609 whole entry): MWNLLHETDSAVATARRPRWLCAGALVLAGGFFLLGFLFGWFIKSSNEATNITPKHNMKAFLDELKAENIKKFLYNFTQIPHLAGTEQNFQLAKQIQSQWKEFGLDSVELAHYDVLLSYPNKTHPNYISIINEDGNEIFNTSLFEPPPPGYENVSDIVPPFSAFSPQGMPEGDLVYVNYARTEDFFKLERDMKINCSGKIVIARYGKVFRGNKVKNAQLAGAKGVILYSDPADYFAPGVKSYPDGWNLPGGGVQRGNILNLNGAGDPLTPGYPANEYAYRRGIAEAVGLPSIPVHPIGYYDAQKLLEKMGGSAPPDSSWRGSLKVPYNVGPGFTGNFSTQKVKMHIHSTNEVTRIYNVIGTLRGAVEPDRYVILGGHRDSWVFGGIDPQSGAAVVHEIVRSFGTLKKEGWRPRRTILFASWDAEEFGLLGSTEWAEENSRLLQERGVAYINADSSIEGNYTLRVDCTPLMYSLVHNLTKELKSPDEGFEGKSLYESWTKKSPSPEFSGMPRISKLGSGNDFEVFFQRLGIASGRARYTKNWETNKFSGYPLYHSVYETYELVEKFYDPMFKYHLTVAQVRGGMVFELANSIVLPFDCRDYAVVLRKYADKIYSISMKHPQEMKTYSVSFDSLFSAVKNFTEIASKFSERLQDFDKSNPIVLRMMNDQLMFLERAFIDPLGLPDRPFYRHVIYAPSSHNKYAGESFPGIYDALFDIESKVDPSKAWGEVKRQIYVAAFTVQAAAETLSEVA

Structure (SMILES): CC1(C)C(=CC=C2CCCC(C=CC3=[N+](CCCCCC(=O)[O-])c4ccc(S(=O)(=O)[O-])cc4C3(C)C)=C2Oc2ccc(S(=O)(=O)[O-])cc2)N(CCCCS(=O)(=O)[O-])c2ccc(S(=O)(=O)[O-])cc21.[Na+].[Na+].[Na+].[Na+] [IRDye800CW]
- absorption maximum [1]: 775 nm
- emission maximum [1]: 796 nm

Structure (SMILES): CC1(C)C(=CC=C2CCCC(C=CC3=[N+](CCCCCC(=O)NCCCCC(NC(=O)CN4CCN(CC(=O)O)CCN(CC(=O)O)CCN(CC(=O)O)CC4)C(=O)NCC4CCC(C(=O)NC(Cc5ccc6ccccc6c5)C(=O)NCCCCC(NC(=O)NC(CCC(=O)O)C(=O)O)C(=O)O)CC4)c4ccc(S(=O)(=O)O)cc4C3(C)C)=C2Oc2ccc(S(=O)(=O)O)cc2)N(CCCCS(=O)(=O)O)c2ccc(S(=O)(=O)O)cc21 (stereo not drawn) [PSMA-927, Glu-urea-Lys-2-Nal-Chx-Lys(IRDye800CW)-DOTA]
- fluorescence signal increase [2]: no significant fluorescence signal increase
- Specifically Cell Surface Bound [3]: 25.51 ± 9.73 %AR/10^5 Cells
- Specifically Internalized [3]: 27.64 ± 12.80 %AR/10^5 Cells
- absorption maximum [4]: 778 nm
- emission maximum ([4]; excitation at 710 nm): 796 nm
- Ki ([5]; Ki=IC50/(1+cradioligand/Kd)): 13.2 ± 5.25 nM
- IC50 ([5]; radioligand 68Ga-PSMA-10, 0.75 nmol/L): 15.9 ± 5.46 nM
- Lipophilicity logDpH 7.4 n-octanol/PBS [6]: -2.96 ± 0.06
- cytotoxicity (cell count, confluency, frequency of cell division, cell cycle length) [7]: did not reveal any evidence of cytotoxicity
- integrated fluorescence intensity fixed ([8]; PFA-fixed cells): 3021 ± 863 counts
- integrated fluorescence intensity live ([8]; live cells): 11,618 ± 5412 counts

Structure (SMILES): O=C([O-])CN1CCN(CC(=O)[O-])CCN(CC(=O)NCC2CCC(C(=O)NC(Cc3ccc4ccccc4c3)C(=O)NCCCCC(NC(=O)NC(CCC(=O)O)C(=O)O)C(=O)O)CC2)CCN(CC(=O)[O-])CC1.[68Ga+3] (stereo not drawn) [[^68Ga]Ga-PSMA-617]
- tumor uptake [9]: 8.47 ± 4.09 % ID/g
- logDpH 7.4 [10]: –2.00
- cell surface binding [11]: 11.40 ± 6.60 %ID/10^5 LNCaP cells
- specific internalization [11]: 16.17 ± 3.66 %ID/10^5 LNCaP cells

Structure (SMILES): O=C([O-])CN1CCN(CC(=O)[O-])CCN(CC(=O)NCC2CCC(C(=O)NC(Cc3ccc4ccccc4c3)C(=O)NCCCCC(NC(=O)NC(CCC(=O)O)C(=O)O)C(=O)O)CC2)CCN(CC(=O)[O-])CC1.[177Lu+3] (stereo not drawn) [[^177Lu]Lu-PSMA-617]
- overall survival [12]: significantly improves overall survival
- tolerability of the treatment regimen [12]: very well-tolerated
- patients with PSA decline greater than 50% [13]: half of the patients
- patients with PSA decline greater than 80% [13]: 27%

Reference: article PMC8954540, “A New Class of PSMA-617-Based Hybrid Molecules for Preoperative Imaging and Intraoperative Fluorescence Navigation of Prostate Cancer” (Pharmaceuticals, 2022)
